Data as given in PMC5870190, “A three-in-one-bullet for oesophageal cancer: replication fork collapse, spindle attachment failure and enhanced radiosensitivity generated by a ruthenium(II) metallo-intercalator” (Chemical Science, 2017).

Columns and labels:
[1] = system: hSAEC1-KT normal human small airway epithelial cells; experiment: MTT assay, hSAEC1-KT cells; format: cell-based
Experimental: MTT assay. OE21, FLO-1 or hSAEC1-KT cells were seeded in 96 well plates at 20,000 cells/well (for 24 h treatment) or 10,000 cells/well (for 72 h treatment) and allowed to adhere for 24 h before treatment. OE33 cells were seeded in 48 well plates at 40,000 cells/well (24 h treatment) or 20,000 cells/well (72 h treatment). Cancer cell lines were treated with chemicals dissolved in RPMI media for consistency. After incubation, 0.5 mg/ml MTT (thiazolyl blue tetrazolium bromide) dissolved in serum-free medium was added for 60 minutes and the formazan product eluted using acidified isopropanol.
(§1) The absorbance at 540 nm was quantified by plate reader (reference wavelength 650 nm). The metabolic activity of the cell population was determined as a percentage of a negative (solvent) control. […]
(§2) For the determination of mutation induction, from the untreated and each treated condition, 2x10^5 cells were plated in 10 x 100 mm dishes in selective media (regular media

OE21 cells [2] = experiment: Trypan Blue exclusion assay; format: cell-based, human; settings: OE21, Ru1 21 μM
Experimental: Trypan Blue exclusion assay. OE21 cells were seeded in 6 well plates at 40,000 cells/well and allowed to adhere for 24 h.
Cell cultures were treated as stated, media containing detached/dead cells were removed and retained, and adherent collected by Trypsin and centrifugation. Adherent and detached cells for each sample were combined, concentrated via centrifugation and re-suspended in 0.5 ml PBS containing 0.04% Trypan Blue solution. Trypan Blue negative and Trypan Blue positive cells were counted by haemocytometer. A minimum of 200 cells were counted for each sample. […]
as §2

OE21 cells [3] = experiment: Micronuclei formation, OE21; format: cell-based, human; settings: 20 μM Ru1, 24 h incubation
Experimental: propidium iodide (PI) is standard to quantify DNA content using flow cytometry, bleed-through of the MLCT emission of […]
To remove these artefacts, a higher concentration of Ru1 (100 µM, 10 mins) was additionally applied post-incubation and fixation to treated and control samples, acting as a substitute DNA dye instead of PI. After staining, cells were centrifuged (1000 rpm, 5 mins) and re-suspended in PBS.
Samples were analysed using a Biosciences LSRII Flow Cytometer using the FL2 channel to collect (recognisable) cell-cycle […]
profiles. […] A minimum of
10,000 cells were counted for each sample and data were processed using FloJo software.
Microscopy and immunofluorescence. […]
emission was collected from 500-530 nm to prevent spectral overlap with Ru1 emission. γH2AX foci were counted using […]
as §1
Cell cultures were treated as stated, media containing detached/dead cells were removed and retained, and adherent collected by Trypsin and centrifugation. […] Trypan Blue negative and Trypan Blue positive cells were counted by haemocytometer. A minimum of 200 cells were counted for each sample. […]

[Ru(phen)2(tpphz)]^2+ [Ru1]
IC50 ([1]; 24 h constant exposure): 78.5 ± 1.3 µM
IC50 ([1]; 72 h constant exposure): 22 ± 2 µM
necrotic cell death (Trypan blue staining) (OE21 cells [2]): ~20%
Cells with micronuclei, Percentage (OE21 cells [3]; OE21 (n=1)): 17.8%
Cells with micronuclei, Percentage (OE21 cells [3]; OE21 (n=2)): 15.0%
